Experimental data as given in ChEMBL document CHEMBL1126508, “Quinazolinones 1: design and synthesis of potent quinazolinone- containing AT1-selective angiotensin-II receptor antagonists” (Bioorg Med Chem Lett, 1993).

Experiments:
[1] = target: T1, Type-1 angiotensin II receptor (Oryctolagus cuniculus, UniProt P34976); assay: Binding affinity against Angiotensin II type 1 Receptor in rabbit aortic tissue; format: tissue-based, Aorta
T1 sequence (P34976 whole entry): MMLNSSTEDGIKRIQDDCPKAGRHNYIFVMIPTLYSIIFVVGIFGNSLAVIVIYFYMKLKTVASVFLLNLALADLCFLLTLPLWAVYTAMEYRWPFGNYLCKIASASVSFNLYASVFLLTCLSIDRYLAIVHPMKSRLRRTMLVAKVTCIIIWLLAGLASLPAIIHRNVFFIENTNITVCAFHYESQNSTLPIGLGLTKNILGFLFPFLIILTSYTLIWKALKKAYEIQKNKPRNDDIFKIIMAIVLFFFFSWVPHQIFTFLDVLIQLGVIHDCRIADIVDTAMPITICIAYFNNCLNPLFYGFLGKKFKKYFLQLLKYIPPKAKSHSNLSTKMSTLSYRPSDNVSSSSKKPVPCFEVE

[2] = Tested for Lipophilicity of the compound; format: physicochemical; conditions: octanol/water
[3] = target: T1, Type-1 angiotensin II receptor; assay: Ability to displace [125I]Sar1-Ile8-AII from Angiotensin II receptor, type 1 in rabbit aorta in presence of 0.2% bovine serum albumin (BSA) was determined in vitro; format: tissue-based

Structure (SMILES) | IC50 [1] [nM] | Lipophilicity [2] | IC50 [3] [nM]
CCCCc1nc2cc(C)ccc2c(=O)n1Cc1ccc(-c2ccccc2C(=O)O)cc1 | 370 |  | 
CCCCc1nc2ccc(OC)cc2c(=O)n1Cc1ccc(-c2ccccc2-c2nnn[nH]2)cc1 | 5 | -0.02 | 
CCCCc1nc2ccc([N+](=O)[O-])cc2c(=O)n1Cc1ccc(-c2ccccc2-c2nn[nH]n2)cc1 | 28 | -0.28 | 
CCCCc1nc2c(C)cccc2c(=O)n1Cc1ccc(-c2ccccc2C(=O)O)cc1 | 1400 |  | 
CCCCc1nc2cc(OC)c(OC)cc2c(=O)n1Cc1ccc(-c2ccccc2-c2nnn[nH]2)cc1 | 13 |  | 
CCCCc1nc2ccc(N)cc2c(=O)n1Cc1ccc(-c2ccccc2-c2nnn[nH]2)cc1 | 1.3 | -1.23 | 
CCCCc1nc2ccc(C(F)(F)F)cc2c(=O)n1Cc1ccc(-c2ccccc2-c2nn[nH]n2)cc1 |  | 0.88 | 12
CCCCc1nc2ccc(F)cc2c(=O)n1Cc1ccc(-c2ccccc2-c2nn[nH]n2)cc1 | 26 | 0.14 | 
CCCCc1nc2cccc(C)c2c(=O)n1Cc1ccc(-c2ccccc2C(=O)O)cc1 | 370 |  | 
CCCCc1nc2cc(Cl)ccc2c(=O)n1Cc1ccc(-c2ccccc2-c2nn[nH]n2)cc1 | 15 |  | 
CCCCc1nc2ccccc2c(=O)n1Cc1ccc(-c2ccccc2C(=O)O)cc1 | 200 |  | 
CCCCc1nc2cc3ccccc3cc2c(=O)n1Cc1ccc(-c2ccccc2C(=O)O)cc1 | 380 |  | 
CCCCc1nc2ccc(C)cc2c(=O)n1Cc1ccc(-c2ccccc2C(=O)O)cc1 | 92 |  | 
CCCCc1nc2ccc(NC(C)=O)cc2c(=O)n1Cc1ccc(-c2ccccc2-c2nnn[nH]2)cc1 | 9 | -0.97 | 
CCCc1nc2ccc(C)cc2c(=O)n1Cc1ccc(-c2ccccc2-c2nn[nH]n2)cc1 | 10 |  | 
CCCCc1nc2ccccc2c(=O)n1Cc1ccc(-c2ccccc2-c2nn[nH]n2)cc1 | 10 | 0 | 
CCCCC(=O)Nc1ccc2nc(CCCC)n(Cc3ccc(-c4ccccc4-c4nnn[nH]4)cc3)c(=O)c2c1 | 2 |  | 
CCCCc1nc2cccc(F)c2c(=O)n1Cc1ccc(-c2ccccc2-c2nn[nH]n2)cc1 | 10 |  | 
CCCCCc1nc2ccc(C)cc2c(=O)n1Cc1ccc(-c2ccccc2-c2nnn[nH]2)cc1 | 6.4 |  | 
CCCCc1nc2ccc(I)cc2c(=O)n1Cc1ccc(-c2ccccc2-c2nnn[nH]2)cc1 |  | 1.12 | 12
CCc1nc2ccc(C)cc2c(=O)n1Cc1ccc(-c2ccccc2-c2nn[nH]n2)cc1 | > 100 |  | 
CCCCc1nc2ccc(C)cc2c(=O)n1Cc1ccc(-c2ccccc2-c2nnn[nH]2)cc1 | 4 | 0.56 | 
CCCCc1nc2ccc(Cl)cc2c(=O)n1Cc1ccc(-c2ccccc2-c2nn[nH]n2)cc1 | 29 | 0.71 | 
